Data reported in the supplement of paper PMC11061612.

Experiments:
Test in all cases: Bliss excess, mean over the matrix (fraction); higher = more synergy
ACHN (Kidney Carcinoma) = system: ACHN (Kidney Carcinoma)
Outline: (§1)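 After 24 hours at 37°C and 5% CO2 in 1536-well plates, cells in DMEM/F12 or RPMI plus 10% FBS received two-drug dose matrices for 72 hours. Viability came from CellTiter-Glo 2.0 luminescence and was scaled as inhibition, anchored at 0 by vehicle wells and at 1 by blank wells. Combination Emax is taken as the second-highest inhibition in the matrix, and Bliss excess as the observed combination effect less EA + EB − EA·EB, with EA and EB the single-agent effects.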

[1] = system: AMO-1 (Plasma Cell Myeloma)
Outline: as §1

[2] = system: C-4-I (Cervical Carcinoma)
Outline: as §1

[3] = system: Caov-4 (Ovarian Carcinoma)
Outline: as §1

D-263MG (Glioblastoma) = system: D-263MG (Glioblastoma)
Outline: as §1

[4] = system: EoL-1-cell (Acute Myeloid Leukemia)
Outline: as §1

[5] = system: HSC-4 (Oral Cavity Carcinoma)
Outline: as §1

[6] = system: Hs-766T (Pancreatic Carcinoma)
Outline: as §1

[7] = system: LU-65 (Non-Small Cell Lung Carcinoma)
Outline: as §1

[8] = system: MLMA (Other Blood Carcinomas)
Outline: as §1

[9] = system: NCI-H1915 (Non-Small Cell Lung Carcinoma)
Outline: as §1

[10] = system: NEC8 (Other Solid Carcinomas)
Outline: as §1

[11] = system: NUGC-3 (Gastric Carcinoma)
Outline: as §1

[12] = system: OSC-20 (Oral Cavity Carcinoma)
Outline: as §1

[13] = system: OVCAR-4 (Ovarian Carcinoma)
Outline: as §1

[14] = system: PANC-04-03 (Pancreatic Carcinoma)
Outline: as §1

[15] = system: SCC-15 (Oral Cavity Carcinoma)
Outline: as §1

[16] = system: TE-1 (Esophageal Squamous Cell Carcinoma)
Outline: as §1

[17] = system: VA-ES-BJ (Other Solid Carcinomas)
Outline: as §1

YH-13 (Glioblastoma) = system: YH-13 (Glioblastoma)
Outline: as §1

SMILES	Bliss excess (ACHN (Kidney Carcinoma))	Bliss excess [1]	Bliss excess [2]	Bliss excess [3]	Bliss excess (D-263MG (Glioblastoma))	Bliss excess [4]	Bliss excess [5]	Bliss excess [6]	Bliss excess [7]	Bliss excess [8]	Bliss excess [9]	Bliss excess [10]	Bliss excess [11]	Bliss excess [12]	Bliss excess [13]	Bliss excess [14]	Bliss excess [15]	Bliss excess [16]	Bliss excess [17]	Bliss excess (YH-13 (Glioblastoma))
NC1(C(=O)N[C@@H](CCO)c2ccc(Cl)cc2)CCN(c2ncnc3[nH]ccc23)CC1 [Capivasertib] + C[C@@H]1COCCN1C2=NC(=NC(=C2)C3(CC3)[S@](=N)(=O)C)C4=C5C=CNC5=NC=C4 [AZD6738] (first compound max 10 µM, 7x7, partner max 10 µM)	-0.0303	-0.021	0.0234	-0.0249	-0.0685	0.0272	-0.0422	-0.02	-0.137	-0.0719	-0.081	0.0288	-0.0639	-0.0194	-0.0267	-0.0322	-0.027	-0.0831	-0.0088	-0.0771
Cn1cnc2c(F)c(Nc3ccc(Br)cc3Cl)c(C(=O)NOCCO)cc21 [Selumetinib] + CC(C)n1c(=O)n(C)c2cnc3cc(F)c(-c4ccc(OCCCN5CCCCC5)nc4)cc3c21 [AZD1390] (first compound max 10 µM, 7x7, partner max 0.3 µM)	0.0389	0.0291	-0.0078	-0.0382	-0.0352	0.0004	-0.085	-0.0215	0.0027	-0.0186	-0.061	-0.0268	-0.0347	-0.0269	-0.0512	-0.0287	-0.0462	0.0347	-0.0471	-0.0342
COc1cccc(OCCCN)c1-c1cc(Nc2cnc(C#N)cn2)n[nH]1 [Prexasertib] + C[C@@H]1COCCN1C2=NC(=NC(=C2)C3(CC3)[S@](=N)(=O)C)C4=C5C=CNC5=NC=C4 [AZD6738] (first compound max 1 µM, 7x7, partner max 10 µM)	-0.0503	-0.0361	-0.0449	-0.0123	-0.019	-0.0109	0.0305	0.0101	-0.0173	-0.0514	-0.0396	-0.009	-0.019	-0.0583	-0.025	0.0017	-0.0316	-0.0617	-0.0114	-0.018
COc1nnc2ccc(N3CCC(c4ccc(OCCN5CCN(C)C(=O)[C@H]5C)cc4)CC3)nn12 [AZD5153] + CCN(CCO)CCCOc1ccc2c(Nc3cc(CC(=O)Nc4cccc(F)c4)[nH]n3)ncnc2c1 [AZD2811] (first compound max 1 µM, 7x7, partner max 1 µM)	0.0017	-0.0109	0.0165	-0.0403	-0.0231	0.003	-0.129	-0.0263	-0.0399	-0.0434	-0.0764	-0.0072	-0.0372	-0.0785	-0.0568	-0.0667	-0.0546	0.0103	-0.0342	-0.0409
CCN(CCO)CCCOc1ccc2c(Nc3cc(CC(=O)Nc4cccc(F)c4)[nH]n3)ncnc2c1 [AZD2811] + O=C(c1cc(Cc2n[nH]c(=O)c3ccccc23)ccc1F)N1CCN(C(=O)C2CC2)CC1 [Olaparib] (first compound max 1 µM, 7x7, partner max 10 µM)	0.0023	0.0193	0.0328	0.0034	-0.0018	-0.03	-0.0347	-0.0415	0.0014	-0.0191	0.025	0.0116	0.0181	-0.0196	0.0234	-0.0177	-0.0376	-0.031	0.0206	0.0304
CCN(CCO)CCCOc1ccc2c(Nc3cc(CC(=O)Nc4cccc(F)c4)[nH]n3)ncnc2c1 [AZD2811] + C[C@@H]1COCCN1C2=NC(=NC(=C2)C3(CC3)[S@](=N)(=O)C)C4=C5C=CNC5=NC=C4 [AZD6738] (first compound max 1 µM, 7x7, partner max 10 µM)	-0.0369	-0.0135	-0.0263	-0.0065	-0.0611	-0.0354	-0.0687	-0.0734	-0.0777	-0.0692	0.0021	0.0487	0.004	0.0279	-0.0179	-0.0563	-0.0478	-0.0042	-0.0217	-0.0931
C=CCn1c(=O)c2cnc(Nc3ccc(N4CCN(C)CC4)cc3)nc2n1-c1cccc(C(C)(C)O)n1 [AZD1775] + C[C@@H]1COCCN1C2=NC(=NC(=C2)C3(CC3)[S@](=N)(=O)C)C4=C5C=CNC5=NC=C4 [AZD6738] (first compound max 1 µM, partner max 10 µM)	-0.0184	-0.0139	0.0088	-0.0268	-0.0766	0.0033	-0.0155	-0.0217	0.0327	-0.0079	-0.0225	0.163	0.0683	0.0026	0.0352	-0.025	-0.0216	-0.0395	0.0568	-0.0142
